# Reference: US10646488B2 (Araxes Pharma LLC, priority 2016, dated 2020)
# Biological target: T1, KRAS G12C 1-169, his-tagged protein, GDP-loaded (Homo sapiens, UniProt P01116, G12C)
# T1 construct: KRAS G12C 1-169, his-tagged protein, GDP-loaded
# Assay: Covalent binding (% modification) to KRAS G12C by mass spectrometry; also: test concentration or dose not given here
# Settings: covalent binding to KRAS G12C after a ten minute incubation period
row,SMILES,Binding %
1,"C=CC(=O)N1[C@H](C)CN(c2nc(NC3CCN(C4CC4)CC3)nc3c(F)c(-c4c(O)cccc4F)c(Cl)cc23)C[C@@H]1C [Compound 20, 1-((2R,6S)-4-(6-chloro-2-((1-cyclopropyl-piperidin-4-yl)amino)-8-fluoro-7-(2-fluoro-6-hydroxyphenyl)quinazolin-4-yl)-2,6-dimethyl-piperazin-1-yl) prop-2-en-1-one]",++ (++ indicates binding activity from 50 to 90%)
2,"C=CC(=O)N1C[C@@H](C)N(c2nc(N3CC(N(C)C)C3)nc3c(F)c(-c4c(O)cccc4F)c(Cl)cc23)[C@@H](C)C1 [Compound 21, 1-((3S,5R)-4-(6-chloro-2-(3-(dimethylamino)azetidin-1-yl)-8-fluoro-7-(2-fluoro-6-hydroxyphenyl)quinazolin-4-yl)-3,5-dimethyl-piperazin-1-yl) prop-2-en-1-one]",++ (++ indicates binding activity from 50 to 90%)
3,"C=CC(=O)N1C[C@@H](C)N(c2nc(OCCN3CC(F)(F)C3)nc3c(F)c(-c4c(O)cccc4F)c(Cl)cc23)[C@@H](C)C1 [Compound 22, 1-((3S,5R)-4-(6-chloro-2-(2-(3,3-difluoroazetidin-1-yl)ethoxy)-8-fluoro-7-(2-fluoro-6-hydroxyphenyl)quinazolin-4-yl)-3,5-dimethyl-piperazin-1-yl) prop-2-en-1-one]",++ (++ indicates binding activity from 50 to 90%)
4,"C=CC(=O)N1[C@H](C)CN(c2nc(OCCN(CC)CC)nc3c(F)c(-c4c(C)ccc5cn[nH]c45)c(Cl)cc23)C[C@@H]1C [Compound 23, 1-((2R,6S)-4-(6-chloro-2-(2-(diethylamino)ethoxy)-8-fluoro-7-(6-methyl-1H-indazol-7-yl)quinazolin-4-yl)-2,6-dimethyl-piperazin-1-yl) prop-2-en-1-one]",++ (++ indicates binding activity from 50 to 90%)
5,"C=CC(=O)N1C[C@H](C)N(c2nc(N3CC(N(C)C)C3)nc3c(F)c(-c4c(O)cccc4F)c(Cl)cc23)C[C@H]1C [Compound 24, 1-((2R,5S)-4-(6-chloro-2-(3-(dimethylamino)azetidin-1-yl)-8-fluoro-7-(2-fluoro-6-hydroxyphenyl)quinazolin-4-yl)-2,5-dimethyl-piperazin-1-yl) prop-2-en-1-one]",++ (++ indicates binding activity from 50 to 90%)
6,"C=CC(=O)N1[C@H](C)CN(c2nc(N3CC(N(C)C)C3)nc3c(F)c(-c4c(O)cccc4F)c(Cl)cc23)C[C@@H]1C [Compound 26, 1-((2R,6S)-4-(6-chloro-2-(3-(dimethylamino)azetidin-1-yl)-8-fluoro-7-(2-fluoro-6-hydroxyphenyl)quinazolin-4-yl)-2,6-dimethyl-piperazin-1-yl) prop-2-en-1-one]",++ (++ indicates binding activity from 50 to 90%)
7,"C=CC(=O)N1[C@H](C)CN(c2nc(N3CC(N(C)C)C3)nc3c(F)c(-c4c(C)ccc5cn[nH]c45)c(Cl)cc23)C[C@@H]1C [Compound 27, 1-((2R,6S)-4-(6-chloro-2-(3-(dimethylamino)azetidin-1-yl)-8-fluoro-7-(6-methyl-1H-indazol-7-yl)quinazolin-4-yl)-2,6-dimethyl-piperazin-1-yl) prop-2-en-1-one]",++ (++ indicates binding activity from 50 to 90%)
8,"C=CC(=O)N1CCN(c2nc(OCCN(CC)CC)nc3c(F)c(-c4c(C)ccc5cn[nH]c45)c(Cl)cc23)[C@@H](C)C1 [Compound 28, 1-((3S)-4-(6-chloro-2-(2-(diethylamino)ethoxy)-8-fluoro-7-(6-methyl-1H-indazol-7-yl)quinazolin-4-yl)-3-methyl-piperazin-1-yl) prop-2-en-1-one]",+++ (+++ indicates binding activity greater than 90%)
9,"C=CC(=O)N1[C@H](C)CN(c2nc(OCCN(CC)CC)nc3c(F)c(-c4c(O)cccc4F)c(Cl)cc23)C[C@@H]1C [Compound 29, 1-((2R,6S)-4-(6-chloro-2-(2-(diethylamino)ethoxy)-8-fluoro-7-(2-fluoro-6-hydroxyphenyl)quinazolin-4-yl)-2,6-dimethyl-piperazin-1-yl) prop-2-en-1-one]",++ (++ indicates binding activity from 50 to 90%)
10,"C=CC(=O)N1[C@H](C)CN(c2nc(OCCN3CC(F)(F)C3)nc3c(F)c(-c4c(C)ccc5cn[nH]c45)c(Cl)cc23)C[C@@H]1C [Compound 30, 1-((2R,6S)-4-(6-chloro-2-(2-(3,3-difluoroazetidin-1-yl)ethoxy)-8-fluoro-7-(6-methyl-1H-indazol-7-yl)quinazolin-4-yl)-2,6-dimethyl-piperazin-1-yl) prop-2-en-1-one]",++ (++ indicates binding activity from 50 to 90%)
11,"C=CC(=O)N1C[C@@H](C)N(c2nc(N)nc3c(F)c(-c4c(C)ccc5cn[nH]c45)c(Cl)cc23)[C@@H](C)C1 [Compound 31, 1-((3S,5R)-4-(2-amino-6-chloro-8-fluoro-7-(6-methyl-1H-indazol-7-yl)quinazolin-4-yl)-3,5-dimethyl-piperazin-1-yl) prop-2-en-1-one]",++ (++ indicates binding activity from 50 to 90%)
12,"C=CC(=O)N1[C@H](C)CN(c2nc(OCCN3CC(F)(F)C3)nc3c(F)c(-c4c(O)cccc4F)c(Cl)cc23)C[C@@H]1C [Compound 32, 1-((2R,6S)-4-(6-chloro-2-(2-(3,3-difluoroazetidin-1-yl)ethoxy)-8-fluoro-7-(2-fluoro-6-hydroxyphenyl)quinazolin-4-yl)-2,6-dimethyl-piperazin-1-yl) prop-2-en-1-one]",+++ (+++ indicates binding activity greater than 90%)
13,"C=CC(=O)N1[C@H](C)CN(c2nc(NC3CCN(C4CC4)CC3)nc3c(F)c(-c4c(C)ccc5[nH]ncc45)c(Cl)cc23)C[C@@H]1C [Compound 33, 1-((2R,6S)-4-(6-chloro-2-((1-cyclopropyl-piperidin-4-yl)amino)-8-fluoro-7-(5-methyl-1H-indazol-4-yl)quinazolin-4-yl)-2,6-dimethyl-piperazin-1-yl) prop-2-en-1-one]",++ (++ indicates binding activity from 50 to 90%)
14,"C=CC(=O)N1CCN(c2nc(N3CC(O)C3)nc3c(F)c(-c4c(O)cccc4F)c(Cl)cc23)[C@@H](C)C1 [Compound 34, 1-((3S)-4-(6-chloro-8-fluoro-7-(2-fluoro-6-hydroxyphenyl)-2-(3-hydroxy-azetidin-1-yl)quinazolin-4-yl)-3-methyl-piperazin-1-yl) prop-2-en-1-one]",++ (++ indicates binding activity from 50 to 90%)
15,"C=CC(=O)N1[C@H](C)CN(c2nc(N3CC(O)C3)nc3c(F)c(-c4c(O)cccc4F)c(Cl)cc23)C[C@@H]1C [Compound 35, 1-((2R,6S)-4-(6-chloro-8-fluoro-7-(2-fluoro-6-hydroxyphenyl)-2-(3-hydroxy-azetidin-1-yl)quinazolin-4-yl)-2,6-dimethyl-piperazin-1-yl) prop-2-en-1-one]",++ (++ indicates binding activity from 50 to 90%)
16,"C=CC(=O)N1[C@H](C)CN(c2nc(OCCc3ccccn3)nc3c(F)c(-c4c(O)cccc4F)c(Cl)cc23)C[C@@H]1C [Compound 36, 1-((2R,6S)-4-(6-chloro-8-fluoro-7-(2-fluoro-6-hydroxyphenyl)-2-(2-(pyridin-2-yl)ethoxy)quinazolin-4-yl)-2,6-dimethyl-piperazin-1-yl) prop-2-en-1-one]",++ (++ indicates binding activity from 50 to 90%)
17,"C=CC(=O)N1[C@H](C)CN(c2nc(OC3CCN(C4CC4)CC3)nc3c(F)c(-c4c(C)ccc5[nH]ncc45)c(Cl)cc23)C[C@@H]1C [Compound 37, 1-((2S,6R)-4-(6-chloro-2-((1-cyclopropyl-piperidin-4-yl)oxy)-8-fluoro-7-(5-methyl-1H-indazol-4-yl)quinazolin-4-yl)-2,6-dimethyl-piperazin-1-yl) prop-2-en-1-one]",++ (++ indicates binding activity from 50 to 90%)
18,"C=CC(=O)N1C[C@H](C)N(c2nc(OCCN3CC(F)(F)C3)nc3c(F)c(-c4c(O)cccc4F)c(Cl)cc23)C[C@H]1C [Compound 38, 1-((2R,5 S)-4-(6-Chloro-2-(2-(3,3-Difluoroazetidin-1-Yl)Ethoxy)-8-Fluoro-7-(2-Fluoro-6-Hydroxyphenyl)Quinazolin-4-Yl)-2,5-Dimethylpiperazin-1-Yl)Prop-2-En-1-One]",+++ (+++ indicates binding activity greater than 90%)
19,"C=CC(=O)N1[C@H](C)CN(c2nc(N3CC(N(C)C)C3)nc3c(F)c(-c4c(C)ccc5[nH]ncc45)c(Cl)cc23)C[C@@H]1C [Compound 39, 1-((2R,6S)-4-(6-chloro-2-(3-(dimethylamino)azetidin-1-yl)-8-fluoro-7-(5-methyl-1H-indazol-4-yl)quinazolin-4-yl)-2,6-dimethyl-piperazin-1-yl) prop-2-en-1-one]",++ (++ indicates binding activity from 50 to 90%)
20,"C=CC(=O)N1C[C@@H](C)N(c2nc(N3CC(N(C)C)C3)nc3c(F)c(-c4c(C)ccc5[nH]ncc45)c(Cl)cc23)[C@@H](C)C1 [Compound 40, 1-((3S,5R)-4-(6-chloro-2-(3-(dimethylamino)azetidin-1-yl)-8-fluoro-7-(5-methyl-1H-indazol-4-yl)quinazolin-4-yl)-3,5-dimethyl-piperazin-1-yl) prop-2-en-1-one]",++ (++ indicates binding activity from 50 to 90%)
21,"C=CC(=O)N1[C@H](C)CN(c2nc(OCCN3CC(F)(F)C3)nc3c(F)c(-c4c(C)ccc5[nH]ncc45)c(Cl)cc23)C[C@@H]1C [Compound 41, 1-((2R,6S)-4-(6-chloro-2-(2-(3,3-difluoroazetidin-1-yl)ethoxy)-8-fluoro-7-(5-methyl-1H-indazol-4-yl)quinazolin-4-yl)-2,6-dimethyl-piperazin-1-yl) prop-2-en-1-one]",++ (++ indicates binding activity from 50 to 90%)
22,"C=CC(=O)N1C[C@@H](C)N(c2nc(NC3CCN(C4CC4)CC3)nc3c(F)c(-c4c(C)ccc5[nH]ncc45)c(Cl)cc23)[C@@H](C)C1 [Compound 42, 1-((3S,5R)-4-(6-chloro-2-((1-cyclopropyl-piperidin-4-yl)amino)-8-fluoro-7-(5-methyl-1H-indazol-4-yl)quinazolin-4-yl)-3,5-dimethyl-piperazin-1-yl) prop-2-en-1-one]",++ (++ indicates binding activity from 50 to 90%)
